US20070042409A1 (priority 2005, published 2007)
Like-named read-outs stand apart in the source and are kept apart here. Values belong to the molecule of their own block, whether it stands above or below them. No end group written: not given here.

Experiments:
[1] = system: obestatin receptors, crude plasma membrane preparation of rat jejunum; assay: I^125-obestatin binding to crude plasma membrane preparation of rat jejunum; settings: for competition of I^125-obestatin binding: rat jejunum preparation; for inhibition of I^125-obestatin binding: jejunum preparation
Description: Mixture of the peptide (20 μg) and 1 mCi [^125I] NaI was transferred to precoated Iodogen vials and incubated for 4 min. The ^125I-labeled peptide was applied to a Sep-Pak C18 cartridge (Waters, Milford, Mass.) before elution with 60% acetonitrile/0.1% TFA. For radioligand binding assays, rat jejunum or other tissues were washed with buffer A (20 mM Hepes, 5 mM EDTA, 1 mM dithiothreitol (DTT), 10 μM amidinophenylmethanesulfonyl fluoride, 5 mg/L leupeptin, 100 mM KCl, pH 7.5), cut into small pieces and homogenized using a Physcotron motorized homogenizer. The homogenates were centrifuged at 1,000 g for 5 min. and the supernatant was centrifuged at 300,000 g for 1 h at 2° C. The pellets (crude membrane fractions) were resuspended with buffer A without KCl, quickly frozen under liquid nitrogen, and stored at −80° C. until use. […] After incubation, the tubes were centrifuged for 10 min. at 10,000 g, and the pellet was washed twice in ice-cold PBS before counting using a γ-spectrophotometer. Specific binding was calculated by subtracting nonspecific binding from total binding.

[2] = target: T1, GPR39 (Homo sapiens, UniProt O43194); assay: I^125-obestatin binding to CHO cells overexpressing GPR39
T1 construct: expressed in transfected cells; host or cells: CHO cells
T1 sequence (O43194 1-453): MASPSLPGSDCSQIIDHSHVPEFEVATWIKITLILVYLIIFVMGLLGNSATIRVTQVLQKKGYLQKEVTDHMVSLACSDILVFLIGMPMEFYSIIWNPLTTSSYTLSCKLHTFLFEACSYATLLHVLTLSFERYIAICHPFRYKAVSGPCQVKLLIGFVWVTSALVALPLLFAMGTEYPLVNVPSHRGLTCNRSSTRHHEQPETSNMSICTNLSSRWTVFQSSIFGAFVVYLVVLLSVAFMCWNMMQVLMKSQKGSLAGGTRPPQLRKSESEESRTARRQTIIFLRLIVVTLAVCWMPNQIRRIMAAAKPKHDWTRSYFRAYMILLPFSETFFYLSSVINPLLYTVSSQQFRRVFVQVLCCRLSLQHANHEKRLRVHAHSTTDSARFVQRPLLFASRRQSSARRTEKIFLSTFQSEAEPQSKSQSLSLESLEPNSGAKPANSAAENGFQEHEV

[3] = Food intake in food-deprived mice after intraperitoneal peptide treatment; assay type: in vivo; settings: adult male mice, deprived of food 16 h, measured at 1, 3 and 5 h
Description: (§1) Analysis of gastrointestinal functions. Eight-week-old C57BL6 male mice were housed individually in a regulated environment. Before intraperitoneal treatment with different peptides, mice were deprived of food for 16 h with free access to water. Food intake was measured by placing preweighed pellets in the cage and weighing uneaten pellets at 1, 3 and 5 h after treatment. To estimate gastric emptying responses, mice deprived of food for 16 h were given food pellets for 90 min. before injection of different hormones or saline. After treatment, mice were deprived of food again and killed 2 h later. The stomach was excised at the pylorus and cardia before weighing. Gastric emptying was calculated by subtracting the stomach weight of treated mice from those killed at the time of the hormone injection.

[4] = Gastric emptying in mice; assay type: in vivo; settings: adult male mice, intraperitoneal, killed 2 h after treatment
Description: as §1

[5] = Body weight gain in adult male rats; assay type: in vivo; settings: for body weight: 1 μmol/kg body weight, thrice daily
[6] = system: jejunum muscle strips; assay: Isometric force measurement of jejunum muscle strips
Description: Isometric force measurements. Jejunum muscle strips (˜1 cm in length) were cut along the longitudinal axis of the circular muscle layer, and the mucosa was removed to minimize endogenous peptides. Muscle strips were mounted to a TIS8105R (Kent Scientific Corporation, Torrington, Conn.) isometric strain gauge and immersed in a 5 ml organ bath maintained at 37° C. with oxygenated KRB [Krebs-Ringer phosphate buffer, consisting of 50 mM HEPES, 100 mM NaCl, 5 mM KCl, and 1 mM each of MgCl2, NaH2PO4, and CaCl2] as described earlier (Porcher et al. (2005) Am J Physiol Gastrointest Liver Physiol 288(5): G1091-103.). A resting force of 1.0 g was applied to intestinal muscles and a 1.5 h equilibration period was allowed before testing of different peptides during a 5 min. period by incubating muscles with peptides at desired concentrations. After each test, muscle strips were washed with fresh KRB for 20 min. to allow full recovery of basal contractile activities. Maximal contraction was evaluated at the beginning and end of each experiment following treatment with 10 μM of acetylcholine chloride. Contractility data were digitized and stored in a computer using the Acknowledge software (MP 100, Biopac Systems, Inc., Goleta, Calif.). Magnitude of contractile strength is expressed as % of maximal contraction induced by acetylcholine.

[7] = target: T1, GPR39; assay: cAMP production in CHO cells overexpressing GPR39; assay type: cell-based
[8] = target: T2, GHSR (Homo sapiens, UniProt Q92847); assay: cAMP production in CHO cells expressing GHSR, with or without chimeric Gsq protein; assay type: cell-based; settings: without Gsq
T2 construct: expressed in transfected cells; host or cells: CHO cells

[9] = target: T1, GPR39; assay: SRE promoter-luciferase reporter in cells cotransfected with GPR39; assay type: cell-based; settings: cotransfection of GPR39 and SRE promoter-luciferase construct
[10] = target: T3, V50-GPR39 (Homo sapiens, UniProt O43194, A50V); settings: ratio of affinities to obestatin
T3 sequence (O43194 1-453 A50V): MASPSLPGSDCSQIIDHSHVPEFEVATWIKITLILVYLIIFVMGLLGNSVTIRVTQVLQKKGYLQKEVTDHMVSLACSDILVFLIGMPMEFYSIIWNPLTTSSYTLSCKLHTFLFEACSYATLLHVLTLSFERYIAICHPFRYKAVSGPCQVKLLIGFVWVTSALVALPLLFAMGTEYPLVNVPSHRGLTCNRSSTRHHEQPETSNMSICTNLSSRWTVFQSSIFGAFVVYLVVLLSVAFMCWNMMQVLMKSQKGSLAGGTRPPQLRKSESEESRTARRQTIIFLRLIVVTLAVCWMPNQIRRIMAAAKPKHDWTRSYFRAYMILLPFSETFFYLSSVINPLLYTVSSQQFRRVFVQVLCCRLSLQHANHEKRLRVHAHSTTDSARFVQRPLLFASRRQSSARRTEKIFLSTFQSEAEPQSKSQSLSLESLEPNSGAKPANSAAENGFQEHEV

[11] = system: cultured rat pituitary cells; assay: GH secretion from cultured rat pituitary cells
Description: Pituitary cell cultures. Anterior pituitaries were removed from adult male Sprague-Dawley rats and dispersed with 0.3% collagenase, 0.1% hyaluronidase and DNase I (10 μg/ml). The cell suspension was centrifuged at 300 g for 5 min. and the cells were washed twice before incubated in DMEM containing 0.1% bovine serum albumin (BSA), penicillin (100 units/ml), streptomycin (100 μg/ml), fungizone (2.5 μg/ml) and 10% fetal calf serum. Cells were seeded onto poly-lysine-coated 24-well plates at a density of 2˜3×10^5 cells/well. Cultures were kept in a humidified atmosphere of 5% CO2 and 95% air at 37° C. […] Media was removed and rat GH was measured by an ELISA.

[12] = target: T4, GPR39 (wild type A50-GPR39) (human, UniProt O43194 1-453); assay: displacement of I^125-obestatin from GPR39
T4 construct: also called obestatin receptor; orphan receptor GPR39
T4 sequence: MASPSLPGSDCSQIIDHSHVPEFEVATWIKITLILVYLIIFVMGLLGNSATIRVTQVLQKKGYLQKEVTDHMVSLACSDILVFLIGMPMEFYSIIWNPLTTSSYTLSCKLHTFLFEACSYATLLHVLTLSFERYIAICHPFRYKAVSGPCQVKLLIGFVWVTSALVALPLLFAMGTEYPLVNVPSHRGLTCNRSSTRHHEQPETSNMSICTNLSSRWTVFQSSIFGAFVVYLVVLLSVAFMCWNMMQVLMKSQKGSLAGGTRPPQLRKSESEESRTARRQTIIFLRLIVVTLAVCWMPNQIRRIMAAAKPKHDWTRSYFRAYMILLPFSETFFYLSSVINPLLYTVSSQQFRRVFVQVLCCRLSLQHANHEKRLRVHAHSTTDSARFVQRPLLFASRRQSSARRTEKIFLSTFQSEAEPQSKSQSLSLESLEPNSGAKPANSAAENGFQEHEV

T2 sequence (Q92847 whole entry, species assumed): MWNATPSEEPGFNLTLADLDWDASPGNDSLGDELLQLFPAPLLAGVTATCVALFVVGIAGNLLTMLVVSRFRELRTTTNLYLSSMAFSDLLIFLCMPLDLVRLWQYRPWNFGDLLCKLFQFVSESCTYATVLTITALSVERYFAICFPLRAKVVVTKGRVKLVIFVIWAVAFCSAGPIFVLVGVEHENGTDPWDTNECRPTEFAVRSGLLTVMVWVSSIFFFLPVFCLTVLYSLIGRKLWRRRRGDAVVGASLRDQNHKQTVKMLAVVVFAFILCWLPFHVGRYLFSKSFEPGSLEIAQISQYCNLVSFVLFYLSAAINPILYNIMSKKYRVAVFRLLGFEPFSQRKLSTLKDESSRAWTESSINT

Molecule: (des1-10)obestatin: truncated obestatin lacking residues 1-10 (LSGVQYQQHSQAL)
competition of I^125-obestatin binding [1]: less effective than obestatin
competition of obestatin binding to GPR39 [2]: less effective

Molecule: Nc1nc2c(ncn2[C@@H]2O[C@H](COP(=O)(O)OP(=O)(O)OP(O)(O)=S)[C@@H](O)[C@H]2O)c(=O)[nH]1 [GTPγS]
inhibition of I^125-obestatin binding ([1]; GTPγS 1 uM): 5%
inhibition of I^125-obestatin binding ([1]; GTPγS 10 uM): 20%
inhibition of I^125-obestatin binding ([1]; GTPγS 100 uM): 45%

Molecule: ghrelin: n-octanoylated 28 amino acid peptide, endogenous GHSR ligand; purchased from Phoenix Pharmaceuticals (GSSFLSPEHQRVQQRKESKKPPAKLQPR; not fully specified (residue 3); UniProt Q9UBU3 24-51, looked up) [reference compound]
food intake [3]: minimally effective
gastric emptying activity [4]: ineffective
body weight [5]: increased body weight
competition of I^125-obestatin binding [1]: not competed
cAMP production [7]: ineffective
GH secretion [11]: 2.32+/−0.08 ng/culture

Molecule: urocortin: peptide injected in mice as positive control for food intake suppression (DNPSLSIDLTFHLLRTLLELARTQSQRERAEQNRIIFDSV; ends and bridges not checked; UniProt P55089 83-122, looked up) [reference compound]
food intake [3]: suppressed food intake

Now from value to molecule, other results behind:

Kd ([1]; labeled obestatin, rat jejunum crude plasma membrane): 4 nM
competition of obestatin binding to GPR39 [2]: competed
cAMP response [8]: did not respond
SRE promoter-luciferase signaling [9]: conferred obestatin
affinity of V50-GPR39 relative to wild type A50-GPR39 [10]: two-fold higher affinity
Molecule: synthesized amidated human obestatin, 23 residue peptide derived from proghrelin; FNAPFDVGIKLSGVQYQQHSQAL-NH2 (SEQ ID NO:4); also used iodinated as radioligand
food intake [3]: suppressed food intake for five hours in a dose-dependent manner
gastric emptying activity [4]: sustained suppression of gastric emptying activity
body weight [5]: suppressed body weight gain
body weight, cotreatment with ghrelin ([5]; cotreatment of obestatin with ghrelin): antagonized the orexigenic action of ghrelin
contractile activity of jejunum muscle strips in presence of ghrelin ([6]; effect on stimulatory effect of ghrelin): antagonized the known stimulatory effect of ghrelin
contractile activity of jejunum muscle strips ([6]; isometric force measurement): decreased contractile activity
cAMP production [7]: dose-dependent increases in cAMP production
GH secretion ([11]; 100 nM, cultured rat pituitary cells, 1 h, control 1.04+/−0.03): 1.04+/−0.03 ng/culture

competition of I^125-obestatin binding [1]: not competed
cAMP production [7]: ineffective
Molecule: CC[C@H](C)[C@H](NC(=O)[C@@H]1CCCN1C(=O)[C@@H](NC(=O)[C@@H](N)Cc1ccccc1)C(C)C)C(=O)N[C@@H](Cc1ccccc1)C(=O)N[C@H](C(=O)N[C@@H](Cc1ccc(O)cc1)C(=O)NCC(=O)N[C@@H](CCC(=O)O)C(=O)N[C@@H](CC(C)C)C(=O)N[C@@H](CCC(N)=O)C(=O)N[C@@H](CCCNC(=N)N)C(=O)N[C@@H](CCSC)C(=O)N[C@@H](CCC(N)=O)C(=O)N[C@@H](CCC(=O)O)C(=O)N[C@@H](CCCCN)C(=O)N[C@@H](CCC(=O)O)C(=O)N[C@@H](CCCNC(=N)N)C(=O)N[C@@H](CC(N)=O)C(=O)N[C@@H](CCCCN)C(=O)NCC(=O)N[C@@H](CCC(N)=O)C(=O)O)[C@@H](C)O [motilin]

competition of I^125-obestatin binding [1]: less effective than obestatin
Molecule: NA-obestatin: non-amidated obestatin, synthesized by GL Biochem
food intake [3]: minimally effective
gastric emptying activity [4]: less effective

competition of I^125-obestatin binding [1]: not competed
Molecule: neuromedin U: peptide purchased from Phoenix Pharmaceuticals (FRVDEEFQSPFASQSRGYFLFRPRN; ends and bridges not checked; UniProt P48645 142-166, looked up)

binding result [12]: binds
B1: (des1-10)obestatin (peptide)
peptide: LSGVQYQQHSQAL
modifications: ends and bridges not checked
notes: Synthetic obestatin lacking residues 1-10; The range 11-23 is derived from the name; also called truncated (des1-10)obestatin
